Literature values in patent US20100196443A1, “USE OF CORDYCEPS SPECIES OR EXTRACT THEREOF IN THE EGG PRODUCTION” (A P NUTRIPHARM PTE. LTD., priority 2007, published 2010).

System: RNA cell
Settings: Siev et al., 1969

## Nc1ncnc2c1ncn2[C@@H]1O[C@H](CO)C[C@H]1O [cordycepin, 3-deoxyadenosine]
  nucleolar RNA synthesis: can inhibit nucleolar RNA synthesis
